Paper PMC10057391, “Novel ^68Ga-Labeled Pyridine-Based Fibroblast Activation Protein-Targeted Tracers with High Tumor-to-Background Contrast” (Pharmaceuticals, 2023)
Read-outs that look alike come from different tables or passages of the source. Blank lines part the entries; values can stand above or below the molecule they belong to.

Legend:
[1] = tested on: HEK293T:hFAP tumor xenografts; assay: PET/CT imaging in mice bearing HEK293T:hFAP tumor xenografts; assay type: in vivo; conditions: PET imaging and biodistribution, 1 h post-injection
Method: Both tracers were excreted primarily through the renal pathway and had very low background uptake in normal organs/tissues. Although [^68Ga]Ga-AV02053 and [^68Ga]Ga-AV02070 had lower tumor uptake than that of previously reported [^68Ga]Ga-FAPI-04, both of them had much lower background uptake, resulting in better tumor-to-background contrast than that of [^68Ga]Ga-FAPI-04 (Figure 3).
(§1) Imaging and biodistribution studies were performed using male NOD.Cg-Rag1tm1Mom Il2rgtm1Wjl/SzJ (NRG) mice following previously published procedures. The experiments were conducted according to the guidelines established by the Canadian Council on Animal Care and approved by Animal Ethics Committee of the University of British Columbia. The mice were briefly sedated by inhalation of 2.5% isoflurane in oxygen, and HEK293T:hFAP cells (8.5 × 10^6 cells) were inoculated subcutaneously behind the left shoulder. When the tumor grew to 5–8 mm in ~3 weeks, the mice were used for PET/CT imaging and biodistribution studies.
PET/CT imaging experiments were carried out using a Siemens (Knoxville, TN, USA) Inveon micro PET/CT scanner. Each tumor-bearing mouse was injected with ~4–6 MBq of ^68Ga-labeled tracer through a lateral caudal tail vein under 2.5% isoflurane in oxygen anesthesia, followed by recovery and then roamed freely in its cage during the uptake period. […]

[2] = tested on: HEK293T:hFAP tumor xenografts; assay: Ex vivo biodistribution and blocking study in HEK293T:hFAP tumor-bearing mice; conditions: 1 h post-injection; for average kidney uptake: range given for the two tracers together; for tumor uptake: HEK293T:hFAP tumor; for average tumor uptake with co-injection of FAPI-04 / reduction of average tumor uptake by co-injection of FAPI-04: blocking, FAPI-04 250 µg co-injected
Method: Biodistribution studies were conducted at 1 h post-injection with [^68Ga]Ga-AV02053 and [^68Ga]Ga-AV02070 in HEK293T:hFAP tumor-bearing mice, and the data are compared with those obtained previously using [^68Ga]Ga-FAPI-04 (Figure 4 and Figure 5 and Table S4). The results are consistent with the observations from their PET images. Except tumor and kidneys (1.35–1.85%ID/g), the average uptake values of [^68Ga]Ga-AV02053 and [^68Ga]Ga-AV02070 in all other collected organs/tissues were <0.6%ID/g. The tumor uptake values of [^68Ga]Ga-AV02053, [^68Ga]Ga-AV02070, and [^68Ga]Ga-FAPI-04 were 5.60 ± 1.12, 7.93 ± 1.88, and 12.5 ± 2.00%ID/g, respectively. […] This also led to higher tumor-to-blood, tumor-to-muscle and tumor-to-bone uptake ratios for [^68Ga]Ga-AV02053 (25.2 ± 1.97, 51.2 ± 19.8 and 38.1 ± 5.03, respectively) and [^68Ga]Ga-AV02070 (22.9 ± 10.1, 45.7 ± 9.88 and 34.3 ± 7.35, respectively) than [^68Ga]Ga-FAPI-04 (11.7 ± 2.04, 18.8 ± 4.09 and 3.93 ± 1.16, respectively) (p < 0.05).
as §1
For biodistribution studies, the mice were injected with the radiotracer (~2–4 MBq), as described above. For the blocking study, the mice were co-injected with 250 μg of FAPI-04. At 1 h post-injection, the mice were euthanized by CO2 inhalation. Blood was withdrawn by cardiac puncture, and organs/tissues of interest were collected, weighed, and counted using a Perkin Elmer (Waltham, MA, USA) Wizard2 2480 automatic gamma counter.

[3] = LogD7.4 measurement, shake flask method (n-octanol/PBS pH 7.4); assay type: physicochemical; conditions: n-octanol / phosphate-buffered saline pH 7.4, shake flask
From the text: The lipophilicity of ^68Ga-labeled AV02053, AV02070, and FAPI-04 were estimated by measuring their LogD7.4 values using the shake flask method with n-octanol and phosphate-buffered saline (pH 7.4). The LogD7.4 values of [^68Ga]Ga-AV02053, [^68Ga]Ga-AV02070, and [^68Ga]Ga-FAPI-04 were −3.75 ± 0.16, −3.45 ± 0.10, and −1.02 ± 0.35, respectively. The values indicate that these ^68Ga-labeled tracers are hydrophilic, and the pyridine-based FAP-targeted tracers, [^68Ga]Ga-AV02053 and [^68Ga]Ga-AV02070, are more hydrophilic than [^68Ga]Ga-FAPI-04.
The lipophilicity characteristics of the ^68Ga-labeled pyridine-based FAPIs were determined by calculating the logarithm of the distribution coefficient (logD) in n-octanol/phosphate-buffered saline (PBS) of pH 7.4. Purified ^68Ga-labeled tracer (50 µL) was added into a test tube containing 1 mL n-octanol and 1 mL PBS. The mixture was vortexed, followed by centrifugation for 5 min at 3000 rpm. The two layers were then collected separately, and the radioactivity was counted using a Perkin Elmer (Waltham, MA, USA) Wizard2 2480 automatic gamma counter. After adjusting the counts to background and calculating the ratio (D) of the activity of the organic to that of the aqueous phase, the logD values were then calculated.

[4] = molecular target: T1, recombinant human FAP (Homo sapiens, UniProt Q12884); assay: In vitro FAP fluorescence enzyme inhibition assay (Suc-Gly-Pro-AMC substrate); assay type: biochemical; conditions: nonradioactive Ga-complexed standards
T1 construct: purchased Bio-legend, San Diego, CA, USA
T1 sequence (Q12884 1-760): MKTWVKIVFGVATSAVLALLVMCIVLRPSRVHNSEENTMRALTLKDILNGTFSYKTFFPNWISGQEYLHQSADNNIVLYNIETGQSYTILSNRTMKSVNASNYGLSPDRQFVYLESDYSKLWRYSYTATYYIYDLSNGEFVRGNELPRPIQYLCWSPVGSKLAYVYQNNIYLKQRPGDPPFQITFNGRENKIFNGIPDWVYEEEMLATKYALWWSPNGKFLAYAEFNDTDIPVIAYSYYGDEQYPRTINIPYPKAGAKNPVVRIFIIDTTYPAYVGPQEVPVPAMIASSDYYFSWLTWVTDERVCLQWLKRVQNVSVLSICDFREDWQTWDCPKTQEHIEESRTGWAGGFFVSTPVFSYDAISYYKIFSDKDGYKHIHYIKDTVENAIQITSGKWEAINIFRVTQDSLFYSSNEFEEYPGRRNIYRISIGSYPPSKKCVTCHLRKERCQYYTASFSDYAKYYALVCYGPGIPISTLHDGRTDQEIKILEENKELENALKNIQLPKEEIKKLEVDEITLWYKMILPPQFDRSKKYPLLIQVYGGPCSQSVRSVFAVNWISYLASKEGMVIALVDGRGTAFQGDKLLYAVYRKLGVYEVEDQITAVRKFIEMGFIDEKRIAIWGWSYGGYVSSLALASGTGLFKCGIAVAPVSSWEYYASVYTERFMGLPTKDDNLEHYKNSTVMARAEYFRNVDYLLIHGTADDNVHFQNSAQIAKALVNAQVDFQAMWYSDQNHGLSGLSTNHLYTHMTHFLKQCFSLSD
Method: The binding affinities of Ga-AV02053 and Ga-AV02070 to human FAP were measured by an enzyme inhibition assay using Suc-Gly-Pro-AMC as the FAP substrate. The human FAP enzymatic activity on the substrate was inhibited by Ga-AV02053 and Ga-AV02070 in a dose dependent-manner (Figure 2).
The half maximal inhibitory concentration (IC50) values of the tested compounds for FAP were measured by in vitro enzymatic assay. The recombinant human FAP (Bio-legend, San Diego, CA, USA; 0.2 µg/mL, 50 µL) was added into costar 96-well plate. PBS and varied concentrations (0.2 pM to 2 µM) of tested nonradioactive Ga-complexed standards were added to each well (in duplicate) containing the recombinant human FAP. After being incubated for 30 min at 37 °C, 50 µL of Suc-Gly-Pro-AMC (2 µM, Bachem, Torrance, CA, USA) was added to each well. The fluorescent signals were acquired at 15, 30, 45, and 60 min using FlexStation 3 Multi-Mode Microplate Reader with excitation at 380 nm and emission at 460 nm. The IC50 (FAP) values were calculated using “nonlinear fit model” built-in model in GraphPad Prism 7.02 software.

[5] = tested on: HEK293T:hFAP tumor xenografts; parameters: method as in PMID 36770755; conditions: 1 h post-injection, cited from earlier work
[6] = tested on: FAP; parameters: method as in PMID 24617858; conditions: cited from earlier work

- average uptake in all other collected organs/tissues (except tumor and kidneys) [2]: < 0.6 %ID/g
- average uptake in other major organs with vs without co-injection of FAPI-04 [2]: no significant difference
- blood uptake [2]: 0.22 ± 0.04 %ID/g
- bone uptake [2]: 0.14 ± 0.02 %ID/g
- muscle uptake [2]: 0.12 ± 0.05 %ID/g
- tumor-to-blood uptake ratio [2]: 25.2 ± 1.97
- tumor-to-bone uptake ratio [2]: 38.1 ± 5.03
- tumor-to-muscle uptake ratio [2]: 51.2 ± 19.8
- average kidney uptake [2]: 1.35–1.85 %ID/g
- tumor uptake [2]: 5.6 ± 1.12 %ID/g
- average tumor uptake with co-injection of FAPI-04 [2]: 0.30 %ID/g
- LogD7.4 [3]: −3.75 ± 0.16
SMILES: CN(CCN(C)c1ccc(C(=O)NCC(=O)N2CC(F)(F)C[C@H]2C#N)cn1)C(=O)CN1CCN(CC(=O)[O-])CCN(CC(=O)[O-])CCN(CC(=O)[O-])CC1.[68Ga+3] [[^68Ga]Ga-AV02053]
- excretion pathway [1]: excreted mainly through the renal pathway
- reduction of average tumor uptake by co-injection of FAPI-04 [2]: 95%

- IC50 [4]: 0.0171 ± 0.0046 µM
SMILES: CN(CCN(C)c1cc(C(=O)NCC(=O)N2CC(F)(F)C[C@H]2C#N)ccn1)C(=O)CN1CCN(CC(=O)[O-])CCN(CC(=O)[O-])CCN(CC(=O)[O-])CC1.[Ga+3] [Ga-AV02070]

- IC50 [4]: 0.187 ± 0.052 µM
SMILES: CN(CCN(C)c1ccc(C(=O)NCC(=O)N2CC(F)(F)C[C@H]2C#N)cn1)C(=O)CN1CCN(CC(=O)[O-])CCN(CC(=O)[O-])CCN(CC(=O)[O-])CC1.[Ga+3] [Ga-AV02053]

- LogD7.4 [3]: −1.02 ± 0.35
SMILES: N#C[C@@H]1CC(F)(F)CN1C(=O)CNC(=O)c1ccnc2ccc(OCCCN3CCN(C(=O)CN4CCN(CC(=O)[O-])CCN(CC(=O)[O-])CCN(CC(=O)[O-])CC4)CC3)cc12.[68Ga+3] [[^68Ga]Ga-FAPI-04]
- blood uptake ([5]; obtained previously): 1.07 ± 0.08 %ID/g
- bone uptake ([5]; obtained previously): 3.36 ± 1.09 %ID/g
- muscle uptake ([5]; obtained previously): 0.67 ± 0.05 %ID/g
- tumor-to-blood uptake ratio ([5]; obtained previously): 11.7 ± 2.04
- tumor-to-bone uptake ratio ([5]; obtained previously): 3.93 ± 1.16
- tumor-to-muscle uptake ratio ([5]; obtained previously): 18.8 ± 4.09
- tumor uptake ([5]; HEK293T:hFAP tumor, previously reported): 12.5 ± 2.00 %ID/g

SMILES: N#C[C@@H]1CCCN1C(=O)CNC(=O)c1ccncc1 [(pyridine-4-carbonyl)glycyl-(2S)-cyanopyrrolidine]
- IC50 [6]: 0.063 µM

- average uptake in all other collected organs/tissues (except tumor and kidneys) [2]: < 0.6 %ID/g
- average uptake in other major organs with vs without co-injection of FAPI-04 [2]: no significant difference
- blood uptake [2]: 0.36 ± 0.05 %ID/g
- bone uptake [2]: 0.23 ± 0.06 %ID/g
- muscle uptake [2]: 0.19 ± 0.10 %ID/g
- tumor-to-blood uptake ratio [2]: 22.9 ± 10.1
- tumor-to-bone uptake ratio [2]: 34.3 ± 7.35
- tumor-to-muscle uptake ratio [2]: 45.7 ± 9.88
- average kidney uptake [2]: 1.35–1.85 %ID/g
- tumor uptake [2]: 7.93 ± 1.88 %ID/g
- average tumor uptake with co-injection of FAPI-04 [2]: 0.21 %ID/g
- LogD7.4 [3]: −3.45 ± 0.10
SMILES: CN(CCN(C)c1cc(C(=O)NCC(=O)N2CC(F)(F)C[C@H]2C#N)ccn1)C(=O)CN1CCN(CC(=O)[O-])CCN(CC(=O)[O-])CCN(CC(=O)[O-])CC1.[68Ga+3] [[^68Ga]Ga-AV02070]
- excretion pathway [1]: excreted mainly through the renal pathway
- reduction of average tumor uptake by co-injection of FAPI-04 [2]: 97%
